Measurements as given in patent publication US20140107109A1, “AMINO-DIHYDROTHIAZINE AND AMINO-DIOXIDO DIHYDROTHIAZINE COMPOUNDS AS BETA-SECRETASE ANTAGONISTS AND METHODS OF USE” (Amgen Inc., priority 2012, published 2014).
Like-named read-outs stand apart in the source and are kept apart here.

What was measured:
[1] = target: Beta Secretase enzyme (BACE1) (Homo sapiens, UniProt P56817); experiment: In vitro enzymatic BACE FRET assay; assay type: biochemical; conditions: read-out: BACE1 FRET assay IC50
Method in brief: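 BACE1 cleavage of a 50 nM fluorophore/quencher peptide FRET substrate ran for one hour in 0.05 M acetate pH 4.2, 10% DMSO, 100 uM genapol. Tris buffer raised pH to neutrality to stop the reaction before fluorescence was read (excitation 488 nm, […]).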

Cathepsin D (Cat D) = target: T1, Cathepsin D (Cat D) (Homo sapiens, UniProt P07339); experiment: In vitro enzymatic Cathepsin D (Cat D) FRET assay; assay type: biochemical; conditions: read-out: CatD IC50
T1 construct: Recombinant Cat D was expressed in CHO cells; made in house; host or cells: CHO cells
Method in brief: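 Recombinant Cat D expressed in CHO cells, used at 9 nM and pre-incubated one hour with serially diluted inhibitor in DMSO. Peptide substrate carries a fluorophore and quencher flanking the cleavage site; reaction stopped with Tris buffer raising pH to neutrality, then fluorescence read.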

[2] = test system: Aβ40 in conditioned medium of cells stably expressing Amyloid Precursor Protein (APP); experiment: In vitro BACE cell-based assay (HEK cell assay), Aβ40 sandwich ELISA
Method in brief: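 APP-stably expressing cells (40K/well, grown 24 h in DMEM/10% FBS) were treated 24 h with compounds in 10-point dose response starting at 100 μM or 10 μM, 0.1% DMSO final. Secreted Aβ40 was measured by sandwich ELISA (pAb40 capture, biotinylated 6E10 detection, europium time-resolved fluorescence); IC50 from percent inhibition.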

[3] = Homo sapiens, HEK293, average IC50, HEK cell assay
[4] = Homo sapiens, HEK293, average IC50, cell assay
[5] = Homo sapiens, HEK293, average IC50, HEK cells

Beta Secretase enzyme (BACE1), sequence (P56817 46-501): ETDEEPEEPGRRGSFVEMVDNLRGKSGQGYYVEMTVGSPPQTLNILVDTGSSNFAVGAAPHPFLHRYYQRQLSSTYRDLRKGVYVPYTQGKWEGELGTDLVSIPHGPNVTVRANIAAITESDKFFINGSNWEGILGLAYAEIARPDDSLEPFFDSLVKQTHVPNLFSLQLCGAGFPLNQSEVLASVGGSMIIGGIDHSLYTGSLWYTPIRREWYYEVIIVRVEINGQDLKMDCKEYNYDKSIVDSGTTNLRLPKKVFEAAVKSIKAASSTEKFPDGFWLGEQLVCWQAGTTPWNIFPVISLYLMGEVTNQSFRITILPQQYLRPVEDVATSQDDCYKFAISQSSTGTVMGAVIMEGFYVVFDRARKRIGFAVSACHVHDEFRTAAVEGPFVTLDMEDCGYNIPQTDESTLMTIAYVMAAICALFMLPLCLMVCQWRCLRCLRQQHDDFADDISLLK
T1 sequence (P07339 65-412, species assumed): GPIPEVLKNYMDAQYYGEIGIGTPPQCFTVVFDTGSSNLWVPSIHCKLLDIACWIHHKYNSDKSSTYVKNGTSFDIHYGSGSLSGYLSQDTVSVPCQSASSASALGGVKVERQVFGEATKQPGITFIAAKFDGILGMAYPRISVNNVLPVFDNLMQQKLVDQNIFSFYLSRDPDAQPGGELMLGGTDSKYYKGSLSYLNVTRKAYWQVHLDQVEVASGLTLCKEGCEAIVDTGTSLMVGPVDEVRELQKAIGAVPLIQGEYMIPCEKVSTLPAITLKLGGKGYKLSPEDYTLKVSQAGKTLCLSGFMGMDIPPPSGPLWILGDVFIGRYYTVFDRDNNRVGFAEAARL

IC50 ([1]; average IC50, enzyme assay) [µM] | IC50 (Cathepsin D (Cat D)) [µM] | IC50 [2, 3] [µM] | Compound | other results
0.00642 | 139 | 0.0095 | Cc1cc(OC(F)F)cnc1C(=O)Nc1cnc(F)c([C@]2(C)CS(=O)(=O)C3(CCC3)C(N)=N2)c1 [Example 358, N-(5-((7R)-9-amino-7-methyl-5,5-dioxido-5-thia-8-azaspiro[3.5]non-8-en-7-yl)-6-fluoro-3-pyridinyl)-5-(difluoromethoxy)-3-methyl-2-pyridinecarboxamide] | –
– | 363 | – | CC1(C)C(N)=N[C@](CF)(c2cc(NC(=O)c3ncc(Cl)cc3F)ccc2F)CS1(=O)=O [Example 409, N-(3-((3S)-5-amino-3-(fluoromethyl)-6,6-dimethyl-1,1-dioxido-3,6-dihydro-2H-1,4-thiazin-3-yl)-4-fluorophenyl)-5-chloro-3-fluoro-2-pyridinecarboxamide] | IC50 [1]: 0.0006 µM; IC50 ([2]; Homo sapiens, HEK293): 0.0037 µM
0.0374 | 153 | – | CC1(C)C(N)=N[C@](C)(c2cc(Oc3ncccc3F)ccc2F)CS1(=O)=O [Example 274, (5R)-5-(2-fluoro-5-((3-fluoro-2-pyridinyl)oxy)phenyl)-2,2,5-trimethyl-5,6-dihydro-2H-1,4-thiazin-3-amine 1,1-dioxide] | IC50 [2, 4]: 0.0348 µM
1.22 | 1000 | 2.54 | COc1cnc2c(Oc3ccc(F)c([C@]4(C)CS(=O)(=O)C(C)(C)C(N)=N4)c3)nccc2n1 [Example 303, (5R)-5-(2-fluoro-5-((2-methoxypyrido[3,4-b]pyrazin-5-yl)oxy)phenyl)-2,2,5-trimethyl-5,6-dihydro-2H-1,4-thiazin-3-amine 1,1-dioxide] | –
0.00047 | > 400 | 0.0058 | CC1(C)C(N)=N[C@](C)(c2cc(NC(=O)c3ncc(Cl)cc3F)ccc2F)C(F)S1(=O)=O (stereo partly drawn) [Example 329, N-(3-((3R)-5-amino-2-fluoro-3,6,6-trimethyl-1,1-dioxido-3,6-dihydro-2H-1,4-thiazin-3-yl)-4-fluorophenyl)-5-chloro-3-fluoro-2-pyridinecarboxamide] | –
0.0212 | 113 | – | COc1cnc2c(Nc3ccc(F)c([C@@]4(C)N=C(N)C(C)(C)S(=O)(=O)C45CC5)c3)nccc2n1 [Example 250, N-(3-((8R)-6-amino-5,5,8-trimethyl-4,4-dioxido-4-thia-7-azaspiro[2.5]oct-6-en-8-yl)-4-fluorophenyl)-2-methoxypyrido[3,4-b]pyrazin-5-amine] | IC50 [2, 4]: 0.059 µM
0.00146 | 416 | 0.208 | CCc1cc(Cl)cnc1C(=O)Nc1ccc(F)c([C@]2(CF)CS(=O)(=O)C(C)(C)C(N)=N2)c1 [Example 197, (S)—N-(3-(5-amino-3-(fluoromethyl)-6,6-dimethyl-1,1-dioxido-3,6-dihydro-2H-1,4-thiazin-3-yl)-4-fluorophenyl)-5-chloro-3-ethylpicolinamide] | –
– | 30.2 | – | Cc1cc(OC(F)F)cnc1C(=O)Nc1ccc(F)c([C@@]2(C)N=C(N)C3(CC3)S(=O)(=O)[C@H]2F)c1 [Example 203, N-(3-((5R,6R)-8-amino-5-fluoro-6-methyl-4,4-dioxido-4-thia-7-azaspiro[2.5]oct-7-en-6-yl)-4-fluorophenyl)-5-(difluoromethoxy)-3-methyl-2-pyridinecarboxamide] | IC50 ([1]; average IC50): 0.00048 µM; IC50 [2, 5]: 0.0023 µM
– | 46.8 | – | Cc1cc(OC(F)F)cnc1C(=O)Nc1ccc(F)c([C@]2(CF)CS(=O)(=O)C3(CC3)C(N)=N2)c1 [Example 217, N-(3-((6S)-8-amino-6-(fluoromethyl)-4,4-dioxido-4-thia-7-azaspiro[2.5]oct-7-en-6-yl)-4-fluorophenyl)-5-(difluoromethoxy)-3-methyl-2-pyridinecarboxamide] | IC50 ([1]; average IC50): 0.0012 µM; IC50 [2, 5]: 0.0061 µM
0.0008 | 437 | 0.0193 | CC1(C)C(N)=N[C@](CF)(c2cc(NC(=O)c3ccc(C(F)F)cn3)ccc2F)CS1(=O)=O [Example 361, N-(3-((3S)-5-amino-3-(fluoromethyl)-6,6-dimethyl-1,1-dioxido-3,6-dihydro-2H-1,4-thiazin-3-yl)-4-fluorophenyl)-5-(difluoromethyl)-2-pyridinecarboxamide] | –
0.00078 | 196 | 0.0013 | CC#CCOc1cnc(C(=O)Nc2cnc(F)c([C@]3(C)CS(=O)(=O)C4(CCC4)C(N)=N3)c2)c(C)c1 [Example 349, N-(5-((7R)-9-amino-7-methyl-5,5-dioxido-5-thia-8-azaspiro[3.5]non-8-en-7-yl)-6-fluoro-3-pyridinyl)-5-(2-butyn-1-yloxy)-3-methyl-2-pyridinecarboxamide] | –
0.00056 | 290 | – | NC1=N[C@](CF)(c2cc(Nc3nccc4cc(Cl)cnc34)ccc2F)CS(=O)(=O)C12CCC2 [Example 245, N-(3-((7S)-9-amino-7-(fluoromethyl)-5,5-dioxido-5-thia-8-azaspiro[3.5]non-8-en-7-yl)-4-fluorophenyl)-3-chloro-1,7-naphthyridin-8-amine] | IC50 [2, 4]: 0.0465 µM
0.00035 | 710 | 0.0012 | CC1(C)C(N)=N[C@](C)(c2cc(NC(=O)c3ncc(C#N)cc3Cl)ccc2F)CS1(=O)=O [Example 356, N-(3-((3R)-5-amino-3,6,6-trimethyl-1,1-dioxido-3,6-dihydro-2H-1,4-thiazin-3-yl)-4-fluorophenyl)-3-chloro-5-cyano-2-pyridinecarboxamide] | –
0.0013 | > 133 | – | C[C@]1(F)C(N)=N[C@](C)(c2cc(Nc3nccc4nc(C(F)(F)F)cnc34)ccc2F)CS1(=O)=O [Example 423, N-(3-((3R,6R)-5-amino-6-fluoro-3,6-dimethyl-1,1-dioxido-3,6-dihydro-2H-1,4-thiazin-3-yl)-4-fluorophenyl)-2-(trifluoromethyl)pyrido[3,4-b]pyrazin-5-amine] | IC50 [2, 4]: 0.735 µM
– | 232 | – | Cc1cc(OCC2CCC2)cnc1C(=O)Nc1ccc(F)c([C@]2(CF)CS(=O)(=O)C(C)(C)C(N)=N2)c1 [Example 151, (S)—N-(3-(5-amino-3-(fluoromethyl)-6,6-dimethyl-1,1-dioxido-3,6-dihydro-2H-1,4-thiazin-3-yl)-4-fluorophenyl)-5-(cyclobutylmethoxy)-3-methylpicolinamide] | IC50 [1]: 0.0017 µM; IC50 ([2]; Homo sapiens, HEK293): 0.1 µM
0.00059 | 108 | 0.0039 | C=Cc1cc(Cl)cnc1C(=O)Nc1ccc(F)c([C@]2(C)CS(=O)(=O)C(C)(C)C(N)=N2)c1 [Example 195, (R)—N-(3-(5-amino-3,6,6-trimethyl-1,1-dioxido-3,6-dihydro-2H-1,4-thiazin-3-yl)-4-fluorophenyl)-5-chloro-3-vinylpicolinamide] | –
– | 47.3 | – | CC1(C)C(N)=N[C@](C)(c2cc(Nc3ncnc4cc(C#N)cnc34)cnc2F)CS1(=O)=O [Example 384, 4-((5-((3R)-5-amino-3,6,6-trimethyl-1,1-dioxido-3,6-dihydro-2H-1,4-thiazin-3-yl)-6-fluoro-3-pyridinyl)amino)pyrido[3,2-d]pyrimidine-7-carbonitrile] | IC50 [1]: 0.00636 µM; IC50 ([2]; Homo sapiens, HEK293): 0.0239 µM
0.0009 | > 4.94 | – | N#Cc1cnc2c(Nc3ccc(F)c([C@]4(CF)CS(=O)(=O)C5(CCC5)C(N)=N4)c3)ncc(F)c2c1 [Example 241, 8-((3-((7S)-9-amino-7-(fluoromethyl)-5,5-dioxido-5-thia-8-azaspiro[3.5]non-8-en-7-yl)-4-fluorophenyl)amino)-5-fluoro-1,7-naphthyridine-3-carbonitrile] | IC50 [2, 4]: 0.0479 µM
– | 822 | – | CC(C)c1c(C(=O)Nc2ccc(F)c([C@]3(CF)CS(=O)(=O)C(C)(C)C(N)=N3)c2)nc2ccc(Cl)cn12 [Example 395, N-(3-((3S)-5-amino-3-(fluoromethyl)-6,6-dimethyl-1,1-dioxido-3,6-dihydro-2H-1,4-thiazin-3-yl)-4-fluorophenyl)-6-chloro-3-(1-methylethyl)imidazo[1,2-a]pyridine-2-carboxamide] | IC50 [1]: 0.0377 µM; IC50 ([2]; Homo sapiens, HEK293): 0.125 µM
0.00131 | 363 | – | N-(3-((7R)-9-amino-7-(fluoromethyl)-5,5-dioxido-5-thia-8-azaspiro[3.5]non-8-en-7-yl)-4-fluorophenyl)-3-chloro-1,7-naphthyridin-8-amine, N-(3-((7S)-9-amino-7-(fluoromethyl)-5,5-dioxido-5-thia-8-azaspiro[3.5]non-8-en-7-yl)-4-fluorophenyl)-3-chloro-1,7-naphthyridin-8-amine [Example 243] | IC50 ([2]; average IC50, cell assay): 0.0779 µM
0.0184 | 958 | – | CCOc1cnc2c(Nc3ccc(F)c([C@]4(C)CS(=O)(=O)C(C)(C)C(N)=N4)c3)nccc2c1 [Example 422, N-(3-((3R)-5-amino-3,6,6-trimethyl-1,1-dioxido-3,6-dihydro-2H-1,4-thiazin-3-yl)-4-fluorophenyl)-3-ethoxy-1,7-naphthyridin-8-amine] | IC50 [2, 4]: 0.029 µM
